The values that follow are results of earlier work, collected in PMC13109691 (Environmental and Molecular Mutagenesis, 2026).

For this data set the following is noted: source not stated.

As for `COc1ccc(C(=O)c2ccccc2)c(O)c1` [Oxybenzone], the “Lipophilicity (logP)” value is recorded as 3.79.
